# Assay results published in patent US20080051387A1, “TETRAHYDROPYRIDO[3,4-D]PYRIMIDINES AND RELATED ANALOGUES” (priority 2006, published 2008).
# Molecular target: T1, chimeric human H3 receptor (Homo sapiens, UniProt Q9Y5N1)
# T1 construct: rat Galpha-i2 (Gnai2, rat); made in house; host or cells: Sf9 insect cells (baculovirus); P2 membranes
# Assay: Chimeric human H3 receptor screening GTP binding assay (inhibition of histamine-stimulated GTP-gamma35S binding, Example 8)
# Format: biochemical
# Details: 1 h; assay described in Example 8; symbol "!" in column headed Ki; read-out: Ki ("!": percent inhibition of agonist-induced GTP-gammaS binding to H3)
# Outline: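 Compound tested at 4 μM against 1 μM histamine stimulation; 125 pM GTP-gamma35S binding measured by filtration and scintillation after 60 min at room temperature. Membranes from Sf9 cells expressing chimeric human H3 plus G-protein subunits, in Tris pH 7.4/NaCl/MgCl2/GDP buffer; values are % inhibition after nonspecific subtraction.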
# T1 sequence (Q9Y5N1 with tags, fused parts or gaps): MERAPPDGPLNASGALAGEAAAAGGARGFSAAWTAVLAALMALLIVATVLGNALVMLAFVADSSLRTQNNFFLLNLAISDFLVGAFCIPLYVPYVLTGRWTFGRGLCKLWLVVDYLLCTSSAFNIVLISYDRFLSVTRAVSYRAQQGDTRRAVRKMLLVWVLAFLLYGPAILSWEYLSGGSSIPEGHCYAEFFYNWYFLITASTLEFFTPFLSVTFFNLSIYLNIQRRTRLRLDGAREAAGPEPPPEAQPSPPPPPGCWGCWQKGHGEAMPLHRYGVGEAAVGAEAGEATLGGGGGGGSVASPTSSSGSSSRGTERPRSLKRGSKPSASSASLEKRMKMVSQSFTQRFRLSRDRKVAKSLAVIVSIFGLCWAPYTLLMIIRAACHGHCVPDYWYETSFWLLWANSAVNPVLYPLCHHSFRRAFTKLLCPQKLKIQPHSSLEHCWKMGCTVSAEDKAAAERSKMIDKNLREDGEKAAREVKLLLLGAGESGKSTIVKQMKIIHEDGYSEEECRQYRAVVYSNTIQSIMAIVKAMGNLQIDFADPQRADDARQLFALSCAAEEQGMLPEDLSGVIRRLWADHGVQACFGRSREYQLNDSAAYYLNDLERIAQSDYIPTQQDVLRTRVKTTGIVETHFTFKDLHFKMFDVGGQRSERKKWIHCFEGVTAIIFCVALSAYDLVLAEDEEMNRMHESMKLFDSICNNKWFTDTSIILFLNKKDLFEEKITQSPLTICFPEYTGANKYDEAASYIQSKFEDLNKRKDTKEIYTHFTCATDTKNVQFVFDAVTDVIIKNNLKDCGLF
row,inhibition at 4 µM,SMILES
1,≥ 90%,"CCOc1ccccc1C(=O)N1CCc2cnc(N3CCN(C4CCC4)CC3)nc2CC1 [Compound 415, 2-(4-cyclobutylpiperazin-1-yl)-7-(2-ethoxybenzoyl)-6,7,8,9-tetrahydro-5H-pyrimido[4,5-d]azepine]"
2,≥ 90%,"Cc1c(C(=O)N2CCc3cnc(N4CCN(C5CCC5)CC4)nc3CC2)cnn1-c1ccccc1 [Compound 504, 2-(4-cyclobutylpiperazin-1-yl)-7-[(5-methyl-1-phenyl-1H-pyrazol-4-yl)carbonyl]-6,7,8,9-tetrahydro-5H-pyrimido[4,5-d]azepine]"
3,≥ 90%,"O=C(c1sc2ccccc2c1Cl)N1CCc2cnc(N3CCN(C4CCC4)CC3)nc2CC1 [Compound 457, 7-[(3-chloro-1-benzothien-2-yl)carbonyl]-2-(4-cyclobutylpiperazin-1-yl)-6,7,8,9-tetrahydro-5H-pyrimido[4,5-d]azepine]"
4,≥ 90%,"COc1cscc1C(=O)N1CCc2cnc(N3CCN(C4CCC4)CC3)nc2CC1 [Compound 456, 2-(4-cyclobutylpiperazin-1-yl)-7-[(4-methoxy-3-thienyl)carbonyl]-6,7,8,9-tetrahydro-5H-pyrimido[4,5-d]azepine]"
5,≥ 90%,"COc1ccc(OC)c(Sc2ncccc2C(=O)N2CCc3cnc(N4CCN(C5CCC5)CC4)nc3CC2)c1 [Compound 500, 2-(4-cyclobutylpiperazin-1-yl)-7-({2-[(2,5-dimethoxyphenyl)thio]pyridin-3-yl}carbonyl)-6,7,8,9-tetrahydro-5H-pyrimido[4,5-d]azepine]"
6,≥ 90%,"O=C(c1ccc(-n2cccc2)nc1)N1CCc2cnc(N3CCN(C4CCC4)CC3)nc2CC1 [Compound 480, 2-(4-cyclobutylpiperazin-1-yl)-7-{[6-(1H-pyrrol-1-yl)pyridin-3-yl]carbonyl}-6,7,8,9-tetrahydro-5H-pyrimido[4,5-d]azepine]"
7,≥ 90%,"O=C(c1csc(-c2cccnc2)n1)N1CCc2cnc(N3CCN(C4CCC4)CC3)nc2CC1 [Compound 529, 2-(4-cyclobutylpiperazin-1-yl)-7-[(2-pyridin-3-yl-1,3-thiazol-4-yl)carbonyl]-6,7,8,9-tetrahydro-5H-pyrimido[4,5-d]azepine]"
8,≥ 90%,"O=C(c1ccccc1Cc1ccccc1)N1CCc2cnc(N3CCN(C4CCC4)CC3)nc2CC1 [Compound 410, 7-(2-benzylbenzoyl)-2-(4-cyclobutylpiperazin-1-yl)-6,7,8,9-tetrahydro-5H-pyrimido[4,5-d]azepine]"
9,≥ 90%,"O=C(c1c(F)cccc1Cl)N1CCc2cnc(N3CCN(C4CCC4)CC3)nc2CC1 [Compound 433, 7-(2-chloro-6-fluorobenzoyl)-2-(4-cyclobutylpiperazin-1-yl)-6,7,8,9-tetrahydro-5H-pyrimido[4,5-d]azepine]"

# Same assay, conditions: 1 h; assay of Example 8; symbol "!" in column headed Ki; read-out: percent inhibition of agonist-induced GTP-gammaS binding to H3
row,inhibition at 4 µM,SMILES
1,≥ 90%,"CCOc1ccc(Br)cc1/C=C/C(=O)N1CCc2cnc(N3CCN(C4CCC4)CC3)nc2CC1 [Compound 587, 7-[(2E)-3-(5-bromo-2-ethoxyphenyl)prop-2-enoyl]-2-(4-cyclobutylpiperazin-1-yl)-6,7,8,9-tetrahydro-5H-pyrimido[4,5-d]azepine]"
2,≥ 90%,"Cc1cc(C)cc(C(=O)N2CCc3cnc(N4CCN(C5CCC5)CC4)nc3CC2)c1 [Compound 359, 2-(4-cyclobutylpiperazin-1-yl)-7-(3,5-dimethylbenzoyl)-6,7,8,9-tetrahydro-5H-pyrimido[4,5-d]azepine]"
3,≥ 90%,"O=C(c1ccc(OC(F)(F)F)cc1)N1CCc2cnc(N3CCN(C4CCC4)CC3)nc2CC1 [Compound 373, 2-(4-cyclobutylpiperazin-1-yl)-7-[4-(trifluoromethoxy)benzoyl]-6,7,8,9-tetrahydro-5H-pyrimido[4,5-d]azepine]"
4,≥ 90%,"O=C(COc1ccc(OC(F)(F)F)cc1)N1CCc2cnc(N3CCN(C4CCC4)CC3)nc2CC1 [Compound 319, 2-(4-cyclobutylpiperazin-1-yl)-7-{[4-(trifluoromethoxy)phenoxy]acetyl}-6,7,8,9-tetrahydro-5H-pyrimido[4,5-d]azepine]"

# Further lines, the compound ahead of its results:
row,SMILES,inhibition at 4 µM
1,"CCCN1CCc2cnc(N3CCN(C4CCC4)CC3)nc2CC1 [Compound 247, 2-(4-cyclobutylpiperazin-1-yl)-7-propyl-6,7,8,9-tetrahydro-5H-pyrimido[4,5-d]azepine]",≥ 90%
2,"O=C(C1CCCCC1)N1CCc2cnc(N3CCN(C4CCC4)CC3)nc2CC1 [Compound 218, 2-(4-cyclobutylpiperazin-1-yl)-7-(cyclohexylcarbonyl)-6,7,8,9-tetrahydro-5H-pyrimido[4,5-d]azepine]",≥ 90%
3,"c1cncc(CN2CCc3cnc(N4CCN(C5CCC5)CC4)nc3CC2)c1 [Compound 239, 2-(4-cyclobutylpiperazin-1-yl)-7-(pyridin-3-ylmethyl)-6,7,8,9-tetrahydro-5H-pyrimido[4,5-d]azepine]",≥ 90%
4,"O=C(c1ccoc1)N1CCc2cnc(N3CCN(C4CCC4)CC3)nc2CC1 [Compound 197, 2-(4-cyclobutylpiperazin-1-yl)-7-(3-furoyl)-6,7,8,9-tetrahydro-5H-pyrimido[4,5-d]azepine]",≥ 90%
5,"O=C(Cc1c(F)cccc1F)N1CCc2cnc(N3CCN(C4CCC4)CC3)nc2CC1 [Compound 291, 2-(4-cyclobutylpiperazin-1-yl)-7-[(2,6-difluorophenyl)acetyl]-6,7,8,9-tetrahydro-5H-pyrimido[4,5-d]azepine]",≥ 90%
6,"O=C(Cc1ccccc1Cl)N1CCc2cnc(N3CCN(C4CCC4)CC3)nc2CC1 [Compound 294, 7-[(2-chlorophenyl)acetyl]-2-(4-cyclobutylpiperazin-1-yl)-6,7,8,9-tetrahydro-5H-pyrimido[4,5-d]azepine]",≥ 90%
7,"Clc1ccc(CN2CCc3cnc(N4CCN(C5CCC5)CC4)nc3CC2)c(Cl)c1 [Compound 266, 2-(4-cyclobutylpiperazin-1-yl)-7-(2,4-dichlorobenzyl)-6,7,8,9-tetrahydro-5H-pyrimido[4,5-d]azepine]",≥ 90%

# Same assay, conditions: symbol ! in Ki; test compound 4 μM, 1 μM histamine; read-out: percent inhibition of agonist-induced GTP-gammaS binding to H3
row,inhibition at 4 µM,SMILES
1,≥ 90%,"c1ccc2nc(CN3CCc4nc(N5CCN(C6CCC6)CC5)ncc4C3)ccc2c1 [Compound 639, 2-(4-cyclobutylpiperazin-1-yl)-6-(quinolin-2-ylmethyl)-5,6,7,8-tetrahydropyrido[4,3-d]pyrimidine]"
2,≥ 90%,"Cc1ccc(CN2CCc3nc(N4CCN(C5CCC5)CC4)ncc3C2)cc1 [Compound 615, 2-(4-cyclobutylpiperazin-1-yl)-6-(4-methylbenzyl)-5,6,7,8-tetrahydropyrido[4,3-d]pyrimidine]"
3,≥ 90%,"c1cc(N2CCOCC2)ncc1CN1CCc2nc(N3CCN(C4CCC4)CC3)ncc2C1 [Compound 621, 2-(4-cyclobutylpiperazin-1-yl)-6-[(6-morpholin-4-ylpyridin-3-yl)methyl]-5,6,7,8-tetrahydropyrido[4,3-d]pyrimidine]"

# Further lines, the compound ahead of its results:
row,SMILES,inhibition at 4 µM
1,"COc1ccc(CN2CCc3c(ncnc3N3CCN(C4CCC4)CC3)C2)c(OC)c1 [Compound 79, 4-(4-cyclobutylpiperazin-1-dimethoxybenzyl)-5,6,7,8-tetrahydropyrido[3,4-d]pyrimidine]",≥ 90%
2,"CCN(CC)C1CCN(c2ncnc3c2CCN(Cc2ccccc2)C3)C1 (stereo not shown) [Compound 15, 1-(7-benzyl-5,6,7,8-tetrahydropyrido[3,4-d]pyrimidin-4-yl)-N,N-diethylpyrrolidin-3-amine]",≥ 90%
3,"O=C(c1ccccn1)N1CCc2c(ncnc2N2CCN(C3CCC3)CC2)C1 [Compound 35, 4-(4-cyclobutylpiperazin-1-yl)-7-(pyridin-2-ylcarbonyl)-5,6,7,8-tetrahydropyrido[3,4-d]pyrimidine]",≥ 90%
4,"c1ccc(CN2CCc3c(ncnc3N3CCN(C4CCCC4)CC3)C2)cc1 [Compound 16, 7-benzyl-4-(4-cyclopentylpiperazin-1-yl)-5,6,7,8-tetrahydropyrido[3,4-d]pyrimidine]",≥ 90%
5,"CCn1nc(C)cc1C(=O)N1CCc2c(ncnc2N2CCN(C3CCC3)CC2)C1 [Compound 40, 4-(4-cyclobutylpiperazin-1-yl)-7-[(1-ethyl-3-methyl-1H-pyrazol-5-yl)carbonyl]-5,6,7,8-tetrahydropyrido[3,4-d]pyrimidine]",≥ 90%
6,"Cc1ccc(CN2CCc3ncnc(N4CCN(C5CCC5)CC4)c3CC2)cc1C [Compound 172, 4-(4-cyclobutylpiperazin-1-yl)-7-(3,4-dimethylbenzyl)-6,7,8,9-tetrahydro-5H-pyrimido[4,5-d]azepine]",≥ 90%
7,"Clc1ccccc1CN1CCc2ncnc(N3CCN(C4CCC4)CC3)c2CC1 [Compound 180, 7-(2-chlorobenzyl)-4-(4-cyclobutylpiperazin-1-yl)-6,7,8,9-tetrahydro-5H-pyrimido[4,5-d]azepine]",≥ 90%
8,"c1cncc(CN2CCc3c(ncnc3N3CCN(C4CCC4)CC3)C2)c1 [Compound 75, 4-(4-cyclobutylpiperazin-1-yl)-7-(pyridin-3-ylmethyl)-5,6,7,8-tetrahydropyrido[3,4-d]pyrimidine]",≥ 90%
9,"O=C(c1ccoc1)N1CCc2c(ncnc2N2CCN(C3CCC3)CC2)C1 [Compound 33, 4-(4-cyclobutylpiperazin-1-yl)-7-(3-furoyl)-5,6,7,8-tetrahydropyrido[3,4-d]pyrimidine]",≥ 90%
10,"O=C(c1ccccc1F)N1CCc2c(ncnc2N2CCN(C3CCC3)CC2)C1 [Compound 31, 4-(4-cyclobutylpiperazin-1-yl)-7-(2-fluorobenzoyl)-5,6,7,8-tetrahydropyrido[3,4-d]pyrimidine]",≥ 90%
11,"O=C(C1CCCO1)N1CCc2c(ncnc2N2CCN(C3CCC3)CC2)C1 (stereo not shown) [Compound 57, 4-(4-cyclobutylpiperazin-1-yl)-7-(tetrahydrofuran-2-ylcarbonyl)-5,6,7,8-tetrahydropyrido[3,4-d]pyrimidine]",≥ 90%
